The test system of assay [1] is platelet aggregation (ADP). Kind of assay: Platelet aggregation inhibitory activity, ADP-induced (Born's turbidimetry, rabbit PRP). Conditions: Oryctolagus cuniculus, ADP 7.5 μM final, 37° C. It is filed as cell-based, male rabbit (NZW). The protocol: (§1) Pharmacological Experiment 1 Platelet aggregation inhibitory activity
(§2) (1) Preparation of platelet rich plasma (PRP):
(§3) The blood was collected from the carotid of a male rabbit without anesthesia (NZW species, body weight; 2-3 kg) with mixing thereof with 1/10 volume of citric acid. The blood thus obtained was separated and put into plastic test tubes (each about 7 ml), and centrifuged at 900 rpm for 15 minutes at room temperature to give a turbid supernatant as a platelet rich plasma (PRP). The residue from which PRP is separated was centrifuged at 3000 rpm for 10 minutes, and the supernatant was collected as a platelet poor plasma (PPP). The PRP was diluted with PPP so that the concentration thereof was adjusted to […], and used in the platelet aggregation inhibitory activity test.
(§4) (2) Method for platelet aggregation inhibitory activity test:
(§5) The platelet aggregation was tested according to Born's turbidimetry. That is, a test compound was dissolved in dimethylformamide, and the test compound solution (1 μl) thus obtained was put into a cuvette, and thereto was further added PRP (200 μl). Immediately thereafter, the cuvette was set into an apparatus for determining platelet aggregation activity, PAM-8T (manufactured by Mevanix Inc.), and the mixture was incubated at 37° C. Precisely three minutes thereafter, a solution of adenosine diphosphate (ADP, PA test ADP [MCM], purchased by MC Medical Ltd.) in physiological saline solution or a collagen solution (Collagenreagent Horm, purchased by MC Medical Ltd.) (20 μl) was added thereto. The final concentration of the ADP solution or the collagen solution was 7.5 μM or 20 μg/ml, respectively.
(§6) The maximum aggregation rate and the aggregation inhibitory rate were calculated by the following equations. [formula]
(§7) IC50, which is a concentration of the test compound being required to inhibit the platelet aggregation reaction by 50%, was determined from the aggregation inhibitory rates at two different concentrations of a test compound.

Assay [2] addresses T1, cGMP-inhibited cAMP phosphodiesterase (PDE3) (Homo sapiens, UniProt Q14432).
T1 construct: made in house; host or cells: insect cell Sf9, baculovirus expression system
Kind of assay: cGMP-inhibited cAMP phosphodiesterase (PDE3) inhibitory activity. It is filed as biochemical. To be noted: 0.4 μM [8-3H]cAMP, pH 8.0, 30° C., 15 minutes; recombinant enzyme from Sf9; read-out: PDE inhibitory activity IC50.

In assay [3] the test system is platelet aggregation (collagen). Kind of assay: Platelet aggregation inhibitory activity, collagen-induced (Born's turbidimetry, rabbit PRP). In kind it is cell-based, male rabbit (NZW). Conditions: Oryctolagus cuniculus, collagen 20 μg/ml final, 37° C. As for the experimental part: as §1, §2, §3, §4, §5, §6, §7
Assay [4] deals with death induced by pulmonary infarction in mice. Kind of assay: Antithrombotic activity: inhibition of death by collagen-induced pulmonary infarction in mice. It is filed as in vivo, male ICR mice. To be noted: Mus musculus, 1 h; 30 mg/kg oral, 10 minutes before i.v. collagen; lethality in an hour; read-out: Pulmonary infarction inhibitory activity. From the text:
Pharmacological Experiment 2 Antithrombotic activity
Antithrombotic activity of the test compounds was estimated by an inhibitory activity of the test compound by oral administration against death induced by pulmonary infarction in mice which was introduced by intravenous administration of collagen (pulmonary infarction inhibitory activity).
Male ICR mice (5-week old, body weight; about 25 g) was fasted overnight, and separated into groups (15 mice per each group) and numbered. A test compound solution, which was prepared by suspending a test compound in 1% hydroxypropylmethyl cellulose 2910 TC-5 (HPMC, manufactured by Shin-etsu Chemical Co., Ltd.), was orally administered to the mice, and 10 minutes thereafter, a collagen solution (the method for preparation thereof and a dose thereof are explained hereafter) was injected to the mice at the tail vein at the constant rate. The lethality of the mice was determined by the number of mice which were died in an hour after the administration of collagen solution. The antithrombotic activity of the test compound was estimated by the inhibitory rate (%) of the lethality of the mice. The collagen solution was prepared by dissolving collagen (Type III, manufactured by Sigma Chemical Ltd.) in 0.05 M acetic acid solution containing 2 mM calcium chloride and 5% glucose at 4° C. so that the final concentration of collagen was adjusted to 2.5 mg/ml, and then the pH value thereof was adjusted to pH 7.4 with sodium hydroxide the day before the experiment. The collagen solution was incubated with stirring at 37° C. for two hours, and then further stirred at room temperature overnight. Just before the experiment, the pH value of the collagen solution was adjusted again to pH 7.4. The amount of the collagen solution which was injected at the tail vein was previously determined so that the lethality by pulmonary infarction induced thereby became about 75%.

Assay [5] deals with left common carotid artery injured by balloon. Kind of assay: Intima thickening inhibitory activity after balloon injury (3H-thymidine in carotid artery). In kind it is in vivo, male SD rats. To be noted: Rattus norvegicus, oral. The protocol:
Pharmacological Experiment 3 Intima thickening inhibitory activity
Male SD rats (6-week old) were separated into groups (8 rats per each group) and numbered. A test compound solution, which was prepared by suspending a test compound in 1% hydroxypropylmethyl cellulose 2910 TC-5 (HPMC, manufactured by Shin-etsu Chemical Co., Ltd.) was orally administered to the rats. In the control group, 1% HPMC solution was orally administered instead of the test compound solution. One or two hours thereafter, two french balloon catheters (manufactured by Baxter Travenol Inc.) were inserted into the left common carotid artery of the rats, and the artery was injured by abrading five times with a balloon. The day of balloon abrasion was considered as Day 0. On the following day (Day 1), a test compound was orally administered to the rats two times a day (in the morning and in the evening). On Day 2, 1.48 MBq/ml of ^3 H-thymidine (dose: 5 ml/kg, manufactured by NEN Research Products, Ltd.) was injected at the tail vein of the rats about one hour after the administration of the test compound so that the time after the balloon injury was fixed to the same in each rat. Precisely 45 minutes after the injection of ^3 H-thymidine at the tail veil, the common carotid artery of the rats was taken out.
In the test compound-treated group, only the left common carotid artery which was injured by balloon was taken out, and in the control group, both the left and right common carotid arteries were taken out. The common carotid artery thus obtained was cut to pieces of exact 1 cm long, and the unnecessary portions such as the outer membrane or the nerves were completely removed. The common carotid artery was put into a glass vial, and thereto was added a 0.5 N sodium hydroxide (0.5 ml), and the mixture was incubated at 37° C. overnight to be solubilized. The mixture was neutralized with a 5 N hydrochloric acid (0.05 ml), and thereto was further added an aqueous hydrogen peroxide solution (0.1 ml). Aquasol II (10 ml, manufactured by Du Pont Co.) was added thereto, and the mixture was well stirred and then allowed to stand for 30 minutes. The radioactivity of tritium in the mixture was counted by liquid scintillation counter. The intima thickening inhibitory activity of the test compound was calculated by the following equation. [formula] L (c): The amount of tritium in the left common carotid artery in the control group (dpm)
R (c): The amount of tritium in the right common carotid artery in the control group (dpm)
L: The amount of tritium in the left common carotid artery in the test compound-treated group (dpm)

Structures are written as SMILES.

In general, IC50 refers to the midpoint of a concentration-inhibition curve.

T1 sequence (Q14432 whole entry): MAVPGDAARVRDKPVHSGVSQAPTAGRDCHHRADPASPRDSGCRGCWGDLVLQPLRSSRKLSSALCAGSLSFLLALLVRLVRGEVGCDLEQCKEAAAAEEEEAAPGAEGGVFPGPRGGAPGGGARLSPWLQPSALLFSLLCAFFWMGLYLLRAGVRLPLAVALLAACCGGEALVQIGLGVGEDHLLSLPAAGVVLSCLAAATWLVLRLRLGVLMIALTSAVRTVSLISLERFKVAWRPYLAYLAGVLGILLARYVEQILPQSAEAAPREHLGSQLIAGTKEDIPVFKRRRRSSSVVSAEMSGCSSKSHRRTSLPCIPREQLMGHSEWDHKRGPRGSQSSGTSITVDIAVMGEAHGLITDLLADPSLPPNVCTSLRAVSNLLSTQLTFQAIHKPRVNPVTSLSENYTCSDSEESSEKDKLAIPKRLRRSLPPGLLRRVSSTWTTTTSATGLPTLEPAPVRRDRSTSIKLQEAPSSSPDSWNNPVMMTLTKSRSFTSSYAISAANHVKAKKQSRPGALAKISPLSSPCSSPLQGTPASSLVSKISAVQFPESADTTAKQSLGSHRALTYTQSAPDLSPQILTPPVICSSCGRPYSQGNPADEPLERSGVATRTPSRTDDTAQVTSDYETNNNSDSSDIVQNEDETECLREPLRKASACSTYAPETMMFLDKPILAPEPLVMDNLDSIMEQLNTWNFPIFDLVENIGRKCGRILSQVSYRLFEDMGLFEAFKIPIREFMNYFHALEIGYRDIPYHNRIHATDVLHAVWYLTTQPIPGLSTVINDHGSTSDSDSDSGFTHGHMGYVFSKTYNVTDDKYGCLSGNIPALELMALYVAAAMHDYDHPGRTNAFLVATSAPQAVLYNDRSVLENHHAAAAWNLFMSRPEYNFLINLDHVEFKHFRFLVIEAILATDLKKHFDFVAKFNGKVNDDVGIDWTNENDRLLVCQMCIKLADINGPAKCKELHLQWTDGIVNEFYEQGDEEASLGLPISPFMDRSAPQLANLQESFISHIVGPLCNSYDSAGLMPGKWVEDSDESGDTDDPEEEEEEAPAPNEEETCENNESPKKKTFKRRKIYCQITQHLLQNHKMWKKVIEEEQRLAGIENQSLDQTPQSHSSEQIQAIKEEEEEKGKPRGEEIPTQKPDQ

As to `O=C(NCCCOc1cc(F)c2[nH]c(=O)ccc2c1)N(C1CC1)[C@@H]1CCCC[C@H]1O` (relative stereo) [Ex. 26], the IC50 in assay [1] stood at 450 nM; in assay [2], 74.6 nM; in assay [3], 3030 nM. Moreover, the inhibition in vivo at 30 mg/kg is 85% in assay [4] and 16% in assay [5].
As to `O=C(NCCCOc1ccc2nc(O)ccc2c1)N(C1CC1)[C@H]1CCCC[C@@H]1O` [Ex. 8, (S,S)-(+)-6-{3-[3-(2-Hydroxycyclohexyl)-3-cyclopropylureido]propoxy}-carbostyril], the IC50 in assay [1] is 2100 nM; in assay [2], 113 nM; in assay [3], 2000 nM. Besides, the figures for the inhibition in vivo at 30 mg/kg in assay [4] and in assay [5] were 100% and 13.3%, respectively.
Turning to `O=C(NCCCOc1ccc2[nH]c(=O)ccc2c1)N(C1CC1)[C@@H]1CCCC[C@H]1O` [Ex. 9, (R,R)-(-)-6-{3-[3-(trans-2-hydroxycyclohexyl)-3-cyclopropylureido]propoxy}carbostyril], the IC50 in assay [1] was determined as 1900 nM; in assay [2], 93 nM; in assay [3] it was 2000 nM. In addition, in assay [4], the inhibition in vivo at 30 mg/kg was determined as 100%. The compound also gave an inhibition in vivo at 10 mg/kg in assay [5] (dose 10 mg/kg) of 26.8%.
Consider `CCC(O)CN(C(=O)NCCCOc1ccc2[nH]c(=O)ccc2c1)C1CCCCC1` (centres unmarked) [Ex. 10], for which the IC50 turned out to be 400 nM in assay [1], 24.3 nM in assay [2] and 300 nM in assay [3]. Moreover, the figures for the inhibition in vivo at 30 mg/kg in assay [4] and in assay [5] were 74% and 34.2%, respectively.
For `CN(CCCOc1ccc2[nH]c(=O)ccc2c1)C(=O)N(C)C1CCCCC1` [Ex. 12, 6-[3-(1,3-dimethyl-3-cyclohexylureido)propoxy]carbostyril], in that order: 31600 nM, 197 nM, 20500 nM, 100% and 21.1%.
For `O=C(NCCCOc1ccc2[nH]c(=O)ccc2c1)N(C1CC1)[C@@H]1CCCC[C@H]1OCCCO` [Ex. 17, (R,R)-(-)-6-{3-[3-[trans-2-(3-hydroxypropoxy)cyclohexyl]-3-cyclopropylureido]propoxy}carbostyril], in that order: 140 nM, 60.8 nM, 2390 nM, 100% and 16%.
Turning to `CN(NC(=O)NCCCOc1ccc2[nH]c(=O)ccc2c1)C1CCCCC1` [Ex. 28], the IC50 in assay [1] came to 110 nM; in assay [2] it was 0.826 nM; in assay [3], 100 nM. The values for the inhibition in vivo at 30 mg/kg in assay [4] and in assay [5] were 100% and 27.8%, respectively.

The record behind these values is US6143763A, “Carbostyril derivatives” (D. Western Therapeutics Institiute, priority 1995, dated 2000).
